Measurements: patent US20230157289A1, “HERBICIDAL PHENYLURACILS” (BASF-SE, priority 2020, published 2023)
Where two headings read alike, the source gives them in different places.

What was measured:
Format in all cases: in vivo
[1] = system: Chenopodium album; experiment: greenhouse post-emergence herbicidal test, CHEAL
From the text: (§1) The culture containers used were plastic flowerpots containing loamy sand with approximately 3.0% of humus as the substrate. The seeds of the test plants were sown separately for each species.
(§2) For the pre-emergence treatment, the active ingredients, which had been suspended or emulsified in water, were applied directly after sowing by means of finely distributing nozzles. The containers were irrigated gently to promote germination and growth and subsequently covered with transparent plastic hoods until the test plants had rooted. This cover caused uniform germination of the test plants, unless this had been impaired by the active ingredients. For the post-emergence treatment, the test plants were first grown to a height of 3 to 15 cm, depending on the plant habit, and only then treated with the active ingredients which had been suspended or emulsified in water. For this purpose, the test plants were either sown directly and grown in the same containers, or they were first grown separately as seedlings and transplanted into the test containers a few days prior to treatment.
(§3) Depending on the species, the test plants were kept at 10 - 25° C. or 20 - 35° C., respectively. The test period extended over 2 to 4 weeks. During this time, the test plants were tended, and their response to the individual treatments was evaluated.
(§4) Evaluation was carried out using a scale from 0 to 100. 100 means no emergence of the test plants, or complete destruction of at least the aerial moieties, and 0 means no damage, or normal course of growth. A good herbicidal activity is given at values of at least 70 and a very good herbicidal activity is given at values of at least 85.

[2] = system: Amaranthus retroflexus; experiment: greenhouse post-emergence herbicidal test, AMARE
From the text: as §1, §2, §3, §4

[3] = system: Setaria viridis; experiment: greenhouse post-emergence herbicidal test, SETVI
From the text: as §1, §2, §3, §4

[4] = system: Lolium multiflorum; experiment: greenhouse post-emergence herbicidal test, LOLMU; conditions: scale from 0 to 100
From the text: as §1, §2, §3, §4

[5] = system: Avena fatua; experiment: greenhouse post-emergence herbicidal test, AVEFA; conditions: application rate 2 g/ha, scale from 0 to 100
From the text: as §1, §2, §3, §4

[6] = system: Alopecurus myosuroides; experiment: greenhouse post-emergence herbicidal test, ALOMY; conditions: scale from 0 to 100
From the text: as §1, §2, §3, §4

[7] = system: Echinocloa crus-galli; experiment: greenhouse post-emergence herbicidal test, ECHCG; conditions: scale from 0 to 100
From the text: as §1, §2, §3, §4

[8] = application rate 16 g/ha, CHEAL, scale from 0 to 100, read-out: herbicidal activity
[9] = application rate 16 g/ha, AMARE, scale from 0 to 100, read-out: herbicidal activity
[10] = application rate 16 g/ha, SETVI, scale from 0 to 100, read-out: herbicidal activity

Which results are given for `C=CCOC(=O)C(OC)Oc1ccccc1Oc1cc(-n2c(=O)cc(C(F)(F)F)n(C)c2=O)c(F)cc1Br` (racemic) [example 4, allyl rac-2-[2-[2-bromo-4-fluoro-5-[3-methyl-2,6-dioxo-4-(trifluoromethyl)pyrimidin-1-yl]phenoxy]phenoxy]-2-methoxy-acetate]?
pest or weed control at 16 g/ha [1, 8]: > 85%; pest or weed control at 16 g/ha [2, 9]: > 85%; pest or weed control at 16 g/ha [3, 10]: > 85%

For `C#CCOC(=O)C(OC)Oc1ccccc1Oc1cc(-n2c(=O)cc(C(F)(F)F)n(C)c2=O)c(F)cc1Br` (racemic) [example 5, prop-2-ynyl rac-2-[2-[2-bromo-4-fluoro-5-[3-methyl-2,6-dioxo-4-(trifluoromethyl)pyrimidin-1-yl]phenoxy]phenoxy]-2-methoxy-acetate], which pest or weed control at 16 g/ha [1, 8] is on record?
The pest or weed control at 16 g/ha was > 85%.

What about the pest or weed control at 16 g/ha [2, 9] of the same compound?
Its pest or weed control at 16 g/ha is > 85%.

What about the pest or weed control at 16 g/ha [3, 10] of the same compound?
Its pest or weed control at 16 g/ha is > 85%.

What does the source list for `COCCOC(=O)C(OC)Oc1ccccc1Oc1cc(-n2c(=O)cc(C(F)(F)F)n(C)c2=O)c(F)cc1Br` (racemic) [example 6, 2-methoxyethyl rac-2-[2-[2-bromo-4-fluoro-5-[3-methyl-2,6-dioxo-4-(trifluoromethyl)pyrimidin-1-yl]phenoxy]phenoxy]-2-methoxy-acetate]?
pest or weed control at 16 g/ha [1, 8]: > 70%; pest or weed control at 16 g/ha [2, 9]: > 85%; pest or weed control at 16 g/ha [3, 10]: > 70%

Which pest or weed control at 16 g/ha [1, 8] does the source give for `COC(Oc1ccccc1Oc1cc(-n2c(=O)cc(C(F)(F)F)n(C)c2=O)c(F)cc1Br)C(=O)NS(C)(=O)=O` (racemic) [example 8, rac-2-[2-[2-bromo-4-fluoro-5-[3-methyl-2,6-dioxo-4-(trifluoromethyl)pyrimidin-1-yl]phenoxy]phenoxy]-2-methoxy-N-methylsulfonyl-acetamide] here?
The pest or weed control at 16 g/ha was > 85%.

What about the pest or weed control at 16 g/ha [2, 9] of the same compound?
Its pest or weed control at 16 g/ha is > 85%.

What about the pest or weed control at 16 g/ha [3, 10] of the same compound?
The pest or weed control at 16 g/ha was > 85%.

`COC(=O)C(Oc1ccccc1Oc1cc(-n2c(=O)cc(C(F)(F)F)n(C)c2=O)c(F)cc1Br)SC` (racemic) [example 9, methyl rac-2-[2-[2-bromo-4-fluoro-5-[3-methyl-2,6-dioxo-4-(trifluoromethyl)pyrimidin-1-yl]phenoxy]phenoxy]-2-methylsulfanyl-acetate] was tested. Which pest or weed control at 16 g/ha [1, 8] did it give?
The pest or weed control at 16 g/ha was > 85%.

And the pest or weed control at 16 g/ha [2, 9]?
Its pest or weed control at 16 g/ha is > 85%.

What about the pest or weed control at 16 g/ha [3, 10] of the same compound?
Its pest or weed control at 16 g/ha is > 85%.

What does the source list for `CCOC(=O)C(F)Oc1ccccc1Oc1cc(-n2c(=O)cc(C(F)(F)F)n(C)c2=O)c(F)cc1Br` (racemic) [example 10, ethyl rac-2-[2-[2-bromo-4-fluoro-5-[3-methyl-2,6-dioxo-4-(trifluoromethyl)pyrimidin-1-yl]phenoxy]phenoxy]-2-fluoro-acetate]?
pest or weed control at 16 g/ha [1, 8]: > 85%; pest or weed control at 16 g/ha [2, 9]: > 85%; pest or weed control at 16 g/ha [3, 10]: > 85%

With `COC(=O)C(OC)Oc1ccccc1Oc1cc(-n2c(=O)c(C)c(C(F)(F)F)n(C)c2=O)c(F)cc1Br` (racemic) [example 11, methyl rac-2-[2-[2-bromo-5-[3,5-dimethyl-2,6-dioxo-4-(trifluoromethyl)pyrimidin-1-yl]-4-fluoro-phenoxy]phenoxy]-2-methoxy-acetate] as the compound, how does the pest or weed control at 16 g/ha [1, 8] read?
Its pest or weed control at 16 g/ha is > 85%.

What about the pest or weed control at 16 g/ha [2, 9] of the same compound?
The pest or weed control at 16 g/ha was > 85%.

What about the pest or weed control at 16 g/ha [3, 10] of the same compound?
The pest or weed control at 16 g/ha was > 85%.

Which results are given for `COC(=O)C(OC)Oc1ncccc1Oc1cc(-n2c(=O)cc(C(F)(F)F)n(C)c2=O)c(F)cc1Br` (racemic) [example 12, methyl rac-2-[[3-[2-bromo-4-fluoro-5-[3-methyl-2,6-dioxo-4-(trifluoromethyl)pyrimidin-1-yl]phenoxy]-2-pyridyl]oxy]-2-methoxy-acetate]?
pest or weed control at 16 g/ha [1, 8]: > 85%; pest or weed control at 16 g/ha [2, 9]: > 85%

What does the source list for `COC(=O)C(OC)Oc1ccccc1Oc1cc(-n2c(=O)cc(C(F)(F)F)n(C)c2=O)c(F)cc1Cl` (centres unmarked) [cmpd 3 (WO 11/137088)]?
damages ([4]; application rate 4 g/ha): 60; damages ([4]; application rate 8 g/ha): 75; damages [5]: 65; damages ([6]; application rate 4 g/ha): 75; damages ([6]; application rate 8 g/ha): 80; damages ([7]; application rate 1 g/ha): 45; damages ([7]; application rate 2 g/ha): 90

What does the source list for `COC(=O)C(OC)Oc1ccccc1Oc1nc(-n2c(=O)cc(C(F)(F)F)n(C)c2=O)c(F)cc1Br` (centres unmarked) [cmpd I.a.646 (WO 17/202768)]?
damages ([4]; application rate 4 g/ha): 60; damages ([4]; application rate 8 g/ha): 65; damages [5]: 40; damages ([6]; application rate 4 g/ha): 50; damages ([6]; application rate 8 g/ha): 70; damages ([7]; application rate 1 g/ha): 25; damages ([7]; application rate 2 g/ha): 65

What does the source list for `COC(=O)C(OC)Oc1ccccc1Oc1cc(-n2c(=O)cc(C(F)(F)F)n(C)c2=O)c(F)cc1Br` (centres unmarked) [example 1, Methyl 2-[2-[2-bromo-4-fluoro-5-[3-methyl-2,6-dioxo-4-(trifluoromethyl)pyrimidin-1-yl]phenoxy]phenoxy]-2-methoxy-acetate]?
pest or weed control at 16 g/ha ([1]; read-out: herbicidal activity): > 85%; damages ([4]; application rate 4 g/ha): 75; damages ([4]; application rate 8 g/ha): 85; pest or weed control at 16 g/ha ([2]; read-out: herbicidal activity): > 85%; damages [5]: 85; damages ([6]; application rate 4 g/ha): 95; damages ([6]; application rate 8 g/ha): 95; pest or weed control at 16 g/ha ([3]; read-out: herbicidal activity): > 85%; damages ([7]; application rate 1 g/ha): 90; damages ([7]; application rate 2 g/ha): 98
